Test results reported in patent publication US7553652B2, “Process for the preparation of (S)- or (R)-3,3,3-trifluoro-2-hydroxy-2-methylpropionic acid” (Lonza AG, priority 1996, dated 2009).

How the values were obtained:
amidohydrolase = test: Enzyme characterization with heat-treated cell-free extract; format: biochemical, Klebsiella oxytoca PRS1K17 (DSM 11623); settings: for effect of methanol on the amidohydrolase: methanol 5 to 20%, 40 and 60° C., substrate 1% (64 mM), 100 mM CAPS buffer pH 10.0
Procedure: A heat-treated cell-free extract was employed for characterizing the amidase. Cells of Klebsiella oxytoca PRS1K17 (DSM 11623) (OD650=160) were disrupted by passing through a French press at 19000 psi (1309 bar). Benzonase (1 μl×30 ml extract^−1) was added, and the extract was then centrifuged for 1 hour at 20000×g. The supernatant (approx. 20 mg×ml^−1 protein) was heated for 10 minutes at 70° C. and the precipitated protein was then removed by centrifugation. The supernatant (approx. 2.0 mg×ml^−1) was concentrated to 5.0 mg×ml^−1 protein and then stored at −20° C. The heat treatment removed approx. 90% of undesired protein. Up to a protein concentration of 0.5 mg×ml^−1, the reaction rate was in direct proportion to the protein concentration. A protein concentration of 0.2 mg×ml^−1 was therefore routinely employed in the tests. To determine the pH optimum, the concentration of (R,S)-2,2-HTFMPA (substrate) was 0.5% (32 mM) and the temperature was 40° C. The buffers listed in Table 4 were employed in the test.
The effect of the temperature on the reaction was determined in 100 mM CAPS buffer (pH 10.0) at a substrate concentration of 0.5% (32 mM). The effect of the substrate concentration was determined at 60° C. in 100 mM CAPS buffer (pH 10.0), and the effect of methanol at 40 and 60° C. at a substrate concentration of 1% (64 mM) in 100 mM CAPS buffer (pH 10.0). […] The temperature optimum is 70° C. […] 10.4 Enzyme Immobilization

[1] = Activity and stability of enzyme immobilized on Eupergit C; format: biochemical, Klebsiella oxytoca; settings: 60° C., 4% racemic amide in 100 mM CAPS buffer (pH 10)
Procedure: The heat-treated cell-free extract was immobilized using Eupergit C (Röhm GmbH). To this end, Eupergit C (3.0 g) was added to 15 ml of heat-treated cell-free extract (protein concentration: 51 mg) in 1 M potassium phosphate buffer (pH 8.0). The mixture was incubated for 90 hours at room temperature with gentle stirring. The immobilized enzyme was filtered off and washed 4 times with 20 ml of 100 mM potassium phosphate buffer (pH 8.0). Support-bound enzyme (49 mg) gave 9.5 g of immobilized enzyme (fresh weight), which was stored in 100 mM potassium phosphate buffer (pH 10.0) at 4° C. To test the activity and stability of the immobilized enzyme, a small chromatography column was loaded with 5 g (25 mg of protein). A peristaltic pump (0.135 ml×min^−1) was used to circulate the substrate (100 ml 4% racemic amide in 100 mM CAPS buffer (pH 10)) between column and reservoir. The entire process was carried out in a water bath. At certain intervals, samples were taken for analysis. […] Three biotransformations (each with 4 g of racemic substrate, the first having been carried out at 60° C. and the remaining two at 40° C.) gave a total of 6 g of (S)-amide.

Work on `C[C@@](O)(C(N)=O)C(F)(F)F` [(R)-2,2-HTFMPA, 3,3,3-trifluoro-2-hydroxy-2-methyl-propionamide] yielded a Km (amidohydrolase; 60° C. in 100 mM CAPS buffer, pH 10) of 32 mM.

For `CO` [methanol], the “effect of methanol on the amidohydrolase” value (amidohydrolase) was “inhibitory effect” and the “effect of methanol on the amidohydrolase” value (amidohydrolase; listed as Methanol) was “inhibit the reaction”.

B1: amidohydrolase: (R)-stereospecific amidohydrolase from Klebsiella oxytoca PRS1/PRS1K17, SEQ ID No. 2; tested as heat-treated cell-free extract (protein, listed as Klebsiella oxytoca)
chain: MKWLEESIMAKRGVGAGRKPVTHHLTEEMQKEFHYTIGPYSTPVLTIEPGDRIIVDTRDAFEGAINSEQDIPSQLLKMPFLNPQNGPIMVNGAEKGDVLAVYIESMLPRGVDPYGICAMIPHFGGLTGTDLTAMLNDPLPEKVRMIKLDSEKVYWSKRHTLPYKPHIGTLSVSPEIDSINSLTPDNHGGNMDVPDIGPGSITYPLVRAPGGRLFIGDAHACQGDGEICGTAVEFASITTIKVDLIKNWQLSWPRMENAENIMSIGSARPLEDATRIAYRDLIYWLVEDFGFEQWDAYMLLSQCGKVRLGNMVDPKYTVGAMLNKNLLV
B1 gave a specific activity [1] of 114 μg×min^−1×mg protein^−1.
